The results in this text go back to US20150224190A1, “Combination of a phosphoinositide 3-kinase inhibitor and an inhibitor of the IL-8/CXCR interaction” (priority 2012, published 2015).

Molecules are shown by their SMILES.

In one assay the test system is pAKT. Description: Target inhibition after single doses: pAKT levels in breast cancer lines. The format is cell-based, human. The note with it: up to 20 hours after treatment, MDA 468, MDA 231 LM2 and mouse 4T-1 breast cancer lines. As to the method: (§1) MDA231, lung metastatic subline MDA231 LM2 (Minn et al., 2005) and SUM159 human breast cancer cells, as well as the Balb/c tumor-derived mammary cancer lines 4T-1 and 168FARN (Aslakson and Miller, 1992), were propagated as previously described. All other cell lines were obtained from and were cultured according to the protocols of ATCC. For treatment with inhibitors, cells were synchronized without serum overnight and then supplemented with culture medium containing the inhibitor(s). For experiments with doxycycline-inducible shRNAs, 500 ng/ml of doxycycline (Sigma) was added to the medium and experiments performed 48 h later. Cell viability assays, cell cycle and cell death measurements were performed at 0.5% FCS in order to avoid masking effects of growth factors present under full-serum conditions.
(§2) Cells for Western Blotting and ELISA were lysed with RIPA buffer. […]
(§3) The present inventors applied single doses of COMPOUND A, a dual PI3K and mTOR inhibitor, and analyzed target inhibition and potential signaling pathway crosstalks after 2, 4, 8 and 20 h hours of treatment. […] While RAD001 readily activated JAK2 starting at 4 hours of treatment, they observed a later response with BKM120 treatment starting at 8 hours after adding the compound. […]

The test system of another assay is pS6. Kind of assay: Target inhibition after single doses: pS6 levels in breast cancer lines. The format is cell-based, human. The note with it: up to 20 hours after treatment, MDA 468, MDA 231 LM2 and mouse 4T-1 breast cancer lines. As to the method: as §1, §2, §3
The test system of another assay is pSTAT3. Description: pSTAT3 levels on treatment. Format: cell-based. The following applies: BEZ235 treatment. As to the method: Cells for Western Blotting and ELISA were lysed with RIPA buffer. Xenograft lysates were prepared by lysing kryo-homogenized tumor powder in RIPA buffer (50 mM Tris-HCl pH 8, 150 mM NaCl, 1% NP-40, 0.5% sodium deoxycholate, 0.1% SDS. RIPA was supplemented with 1× protease inhibitor cocktail (Complete Mini, Roche), 0.2 mmol/L sodium-vanadate, 20 mM sodium fluoride and 1 mmol/L phenylmethylsulfonyl fluoride. For IRS-1 immunoprecipitation, cell lysates containing 500-1000 μg of protein were incubated with 1 μg of antibody and 20-50 μl of protein A-Sepharose beads (Zymed Laboratories, Inc., South San Francisco, Calif.) overnight at 4° C. Immunoprecipitates or whole cell lysates (30-80 μg) were subjected to SDS-PAGE, transferred to PVDF membranes (Immobilon-P, Millipore) and blocked for 1 hr at room temperature with 5% milk in PBS-0.1% Tween 20. […]
as §3

For a further assay, the system named is JAK2/STAT5. Kind of assay: JAK2/STAT5 activation in human primary triple-negative breast tumors grown in immunodeficient mice. Format: in vivo. The following applies: 30 mg/kg BEZ235 for 4 days vs vehicle. As to the method:
FIG. 4. BEZ235 treatment activates JAK2/STAT5 and IL-8 secretion in human primary triple-negative breast tumors Immunoblots of lysates from primary triple-negative breast tumors grown in immunodeficient mice and treated for 4 days with 30 mg/kg BEZ235 or vehicle (VHC). pJAK2 levels were measured in triplicate by ELISA and normalized to total JAK2 levels (Y-axis).
as §2
For assessing pJAK2 levels, an ELISA assay (Tyr1007/1008, Invitrogen) was applied because of cross-reactivity of all pJAK2 antibodies tested. Interleukin-8 levels in RIPA lysates, cell culture supernatants and mouse tail vein blood plasma were measured by ELISA, as well (Biolegend). […]

With `Cn1c(=O)n(-c2ccc(C(C)(C)C#N)cc2)c2c3cc(-c4cnc5ccccc5c4)ccc3ncc21` [COMPOUND A, 2-methyl-2-[4-(3-methyl-2-oxo-8-quinolin-3-yl-2,3-dihydro-imidazo[4,5-c]quinolin-1-yl)-phenyl]-propionitrile], the pAKT levels result in the assay on pAKT is “reduced”. In the assay with pS6, the pS6 levels entry was “completely blocked”. Also, the “Levels of pSTAT3” value with pSTAT3 was “largely unaffected”. For the same compound, the “JAK2/STAT5 activation (pJAK2 normalized to total JAK2, immunoblots)” value with JAK2/STAT5 is on record as “activates”.
